“Also recorded” adds a separate entry of the source. Where a SMILES comes first, the peptide text is derived from it. [ ]: non-standard residue; d: D form. The star is where a group is joined. ξ: configuration not given here. NH(TEMPO-4-yl) = CC1(C)CC(N*)CC(C)(C)N1[O]; Orn = NCCC[C@H](N)C(=O)O; Cbz = O=C(OCc1ccccc1)*; Boc = CC(C)(C)OC(=O)*; ξOrn = NCCCC(N)C(=O)O; X1 = CC1CCN=C(N*)S1
Key:
mitochondrial membrane = experiment: Quantitative mass spectrometry of AMT peptide conjugates permeating the mitochondrial membrane; type: cell-based; details: relative quantification of conjugate at the target site
Method: Quantitative mass spectrometry studies were used to compare the effectiveness of several AMT peptide conjugates in permeating the mitochondrial membrane, specifically XJB-5-234, XJB-5-133, XJB-5-241, and XJB-5-127. The fmole/10 μM mitochondrial protein ratio provides a relative quantification of conjugate concentration at the target site.

[1] = system: mouse embryonic cells (MEC); experiment: EPR-based analysis of integration and reduction of nitroxide Gramicidin S-peptidyl conjugates in MECs; type: cell-based; details: 10 μM, whole cells, cytosol fractions
Method: Electron paramagnetic resonance (“EPR”) spectroscopy was used to monitor the cellular delivery of compounds 5a and 5b shown in FIG. 3 in mouse embryonic cells (“MEC”).
The following conditions were used during the EPR-based analysis of the integration and reduction of nitroxide Gramicidin S-peptidyl conjugates in MECs. The MECs at a concentration of 10 million MECs per mL were incubated with 10 μM of 4-AT and compound 5a, respectively. Recovered nitroxide radicals in whole cells, mitochondria, and cytosol fractions were resuspended in phosphate buffer saline (“PBS”) in the presence and absence, respectively, of 2 μM K3Fe(CN)6.

MECs [2] = experiment: Intracellular superoxide generation (DHE flow cytometry) in ActD-treated MECs; type: cell-based, mouse; details: 10 μM pretreatment; ActD 100 ng/mL
Method: Determination of intracellular superoxide radicals. Oxidation-dependent fluorogenic dye, dihydroethidium (“DHE”, Molecular Probes) was used to evaluate intracellular production of superoxide radicals. DHE is cell permeable and, in the presence of superoxide, is oxidized to fluorescent ethidium which intercalates into DNA. The fluorescence of ethidium was measured using a FACscan (Becton-Dickinson, Rutherford, N.J.) flow cytometer, equipped with a 488-nm argon ion laser and supplied with the Cell Quest software. Mean fluorescence intensity from 10,000 cells were acquired using a 585-nm bandpass filter (FL-2 channel).

[3] = system: mitochondria of 32D c 13 hemopoietic cells; experiment: Mass spectrometry of compounds in mitochondria isolated from 32D cl 3 cells; type: cell-based, murine; details: 100 μM; two hours at 37° C.
Method: An unconjugated and conjugated NOS antagonist, (AMT, 100 μM) and an unconjugated and conjugated nitroxide derivative (4-amino-TEMPO, 100 μM) were incubated for two hours at 37° C. with 32D c 13 hemopoietic cells.
Following incubation, the cells were lysed and the mitochondria isolated for a mass spectrometry analysis where compounds isolated from mitochondria were identified as Na+ adducts. […] Thus, the targeting peptides successfully direct a NOS antagonist and a nitroxide to the mitochondria.

[4] = system: irradiated uroepithelial cells; experiment: NO and peroxynitrite production in irradiated uroepithelial cells; type: cell-based; details: 4-amino-TEMPO 100 μM, AMT 10 μM; capsaicin evoked; 24 hours after irradiation
Method: Further physiological studies were conducted to determine the effects of peptide-targeted AMT and 4-amino-TEMPO on NO and peroxynitrite production in irradiated uroepithelial cells. The cells were cultured in an 8-well slide chamber for 3 days and then microsensor measurements were taken 24 hours after irradiation.
In cells treated with high-dose conjugated 4-amin-TEMPO (100 μM), peroxynitrite production was decreased by approximately 4-fold.

MECs [5] = experiment: ActD-induced apoptosis in MECs (annexin V, caspase-3, DNA fragmentation); details: for DNA fragmentation / caspase-3 activation / number of annexin V-positive cells (PS externalization): 10 μM, ActD 100 ng/mL
Method: The ability of 5a, 5b, and 4-AT to protect cells against apoptosis triggered by actinomycin D (“ActD”) was also tested. MECs were pretreated with 10 μM 4-AT, 5a, or 5b then incubated with ActD at a concentration of 100 ng/mL.
Externalization of PS was analyzed by flow cytometry using an annexin V kit. Cells were harvested by trypsinization at the end of incubation and then stained with annexin V-FITC and propidium iodide (“PS”). Ten thousand cell events were collected on a FACScan flow cytometer. Annexin V-positive and PI-negative cells were considered apoptotic.
Activation of capase-3, a cysteine protease only activated in the execution phase of apoptosis, was determined using an EnzChek capsase-3 assay kit.
These DNA fragments are eluted, stained with propidium iodide and analyzed using flow cytometry. A cell population with decreased DNA content was considered a fraction of apoptotic cells.

[6] = system: 32D cl 3 mouse hematopoietic progenitor cell line; experiment: Irradiation survival curves of 32D cl 3 cells with JP4-039; type: cell-based; details: 10 μM
Method: Irradiation survival curves were performed on cells from the 32D cl 3 mouse hematopoietic progenitor cell line, incubated in 10 μM JP4-039 for 1 hour before irradiation, or plated in methylcellulose containing 10 μM […] after irradiation. Cells were irradiated from 0 to 8 Gy, plated in 0.8% methylcellulose containing media, and incubated for 7 days at 37° C. Colonies of greater than 50 cells were counted and data analyzed by linear quadratic and single-hit, multi-target models.

[7] = system: KM101 human marrow stromal cells; experiment: Irradiation survival of KM101 cells with JP4-039; type: cell-based; details: 10 μM
Method: KM101 cells were incubated in media alone or in JP4-039 (10 μM) for one hour before irradiation or 24 hours after irradiation. The cells were irradiated to doses ranging from 0 to 6 Gy and plated in 4 well plates. Seven days later the cells were stained with crystal violet and colonies of greater than 50 cells counted. Cells incubated in JP4-039 either before or after irradiation were more radioresistant as shown by an increased shoulder of n=2.3±0.2 or 2.2±0.2, respectively compared to n of 1.1±0.1 for the KM101 cells (p=0.0309 or 0.0386, respectively).

[8] = system: mice exposed to total body irradiation; experiment: Survival of mice after total body irradiation; type: in vivo, mouse
Method: In FIG. 17A, mice received intraperitoneal injection of 10 mg per kilogram of each of the chemicals indicated in FIG. 5, then 24 hours later received 9.75 Gy total body irradiation according to published methods. Mice were followed for survival according to IACUC regulations. […] (P=0.0008). In FIG. 17B, mice received intraperitoneal injection of JP4-039 either 10 minutes before (square symbols) or 4 hours after (triangle symbols) irradiation with 9.75 Gy.
Groups of 15 mice received intraperitoneal injection of 10 mg. per kilogram of each indicated GS-nitroxide compound or carrier (Cremphora plus alcohol at 1 to 1 ratio, then diluted 1 to 10 in distilled water). Mice received 10 mg per kilogram intra-peritoneal injection 24 hours prior to total body irradiation. Control mice received radiation alone. […] (P=0.0005)

[9] = system: MEF cells prepared from Ercc1−/− mouse embryos; experiment: Toxicity of JP4-039 in Ercc1−/− MEF cultures; type: cell-based; details: 48 hours
Method: (§1) To assess the therapeutic potential of JP4-039, tests for safety and protective activity were performed. FIGS. 35 and 36 show the results of tests to evaluate whether varying concentrations of JP4-039 produce toxic effects after 48 hours in cultures of MEF cells prepared from Ercc1^−/− or wild-type mouse embryos, respectively.

[10] = system: MEF cells prepared from wild-type mouse embryos; experiment: Toxicity of JP4-039 in wild-type MEF cultures; type: cell-based; details: up to 10 μM, 48 hours
Method: as §1

[11] = system: p16 in primary MEFs from Ercc1−/− mouse embryos; experiment: p16 immunofluorescence in Ercc1−/− MEFs under 20% oxygen; type: cell-based; details: 1 uM, 48 hrs
Method: To test the protective activity of JP4-039, cultures of primary MEFs were prepared from Ercc1^−/− mouse embryos and grown under 20% oxygen (ambient air), which creates oxidative stress in these cells that are hypersensitive to reactive oxygen species. The cells were then either treated with a concentration of 1 uM XJB-5-131, JP4-039, JED-E71-37 or JED-E71-58, or left untreated (media), and then after 48 hrs the level of p16, a marker of irreversible cellular senescence, was measured by immunofluorescence staining.

[12] = system: γ-H2AX in primary MEF cells from Ercc1−/− mice; experiment: γ-H2AX immunostaining in Ercc1−/− MEFs under oxidative stress; type: cell-based, mouse; details: 1 μM, 48 hours
Method: Next, the abilities of these two agents, as well as XJB-5-131 and JP4-039, each at a concentration of 1 μM, were tested for their ability to prevent oxidation-induced DNA double-strand breaks in cell cultures prepared, and oxidatively stressed, as in the preceding paragraph. Treated as well as untreated cells were, after 48 hours of treatment, immunostained for γ-H2AX, a marker of DNA double-strand breaks as well as cellular senescence.

## CC(C)C[C@@H](/C=C/[C@H](Cc1ccccc1)C(=O)N1CCC[C@H]1C(=O)N[C@H](C(=O)N[C@@H](CCCNC(=O)OCc1ccccc1)C(=O)NC1=NCCC(C)S1)C(C)C)NC(=O)OC(C)(C)C (stereo partly drawn) [XJB-5-133, Boc-leu-ψ[(E)-CH═CH]-^DPhe-Pro-Val-Orn(Cbz)-AMT]
Mitochondrial membrane
  fmole/10 μM mitochondrial protein: 89.8 fmole/10 μM mitochondrial protein

## C/C(=C\[C@H](Cc1ccccc1)C(=O)N1CCC[C@H]1C(=O)N[C@H](C(=O)NC(CCCNC(=O)OCc1ccccc1)C(=O)NC1=NCCC(C)S1)C(C)C)[C@H](CC(C)C)NC(=O)OC(C)(C)C (stereo partly drawn) [XJB-5-241, Boc-Leu-ψ[(E)-C(CH3)═CH]-^DPhe-Pro-Val-Orn(Cbz)-AMT]
Mitochondrial membrane
  fmole/10 μM mitochondrial protein: 103.3 fmole/10 μM mitochondrial protein

## CC1(C)CC(N)CC(C)(C)N1[O] [4-amino-TEMPO, reference compound]
[1]
  EPR signals of nitroxide radicals; integration into cells and mitochondria: did not effectively permeate cells or the mitochondria
MECs [2]
  intracellular superoxide generation: had no effect
[3]
  permeation of the mitochondrial membrane (MS, Na+ adducts): only permeate the mitochondrial membrane with the assistance of the attached GS-derived targeting sequence
[4]
  peroxynitrite formation: comparable amount of peroxynitrite
MECs [5]; 10 μM / low concentrations
  protection against ActD-induced apoptosis: afforded no protection

## CC(C)C[C@@H](/C=C/[C@H](Cc1ccccc1)C(=O)N1CCC[C@H]1C(=O)N[C@H](C(=O)N[C@@H](CCCNC(=O)OCc1ccccc1)C(=O)NC1CC(C)(C)N([O])C(C)(C)C1)C(C)C)NC(=O)OC(C)(C)C [5a]
MECs [2]
  intracellular superoxide generation: completely inhibited
MECs [5]
  DNA fragmentation: prevented DNA fragmentation
  caspase-3 activation: prevented caspase-3 activation
  number of annexin V-positive cells (PS externalization): reduced the number of annexin V•positive cells

## CC(C)C[C@H](NC(=O)OC(C)(C)C)C(=O)N[C@H](Cc1ccccc1)C(=O)N1CCC[C@H]1C(=O)N[C@H](C(=O)NC(CCCNC(=O)OCc1ccccc1)C(=O)NC1=NCCC(C)S1)C(C)C (stereo partly drawn) [XJB-5-127, Boc-Leu-^DPhe-Pro-Val-Orn(Cbz)-AMT] (Boc-L[dF]PV[ξOrn](Cbz)-X1)
Mitochondrial membrane
  fmole/10 μM mitochondrial protein: 50.8 fmole/10 μM mitochondrial protein

## CC(C)C[C@@H](/C=C/CC(=O)NC1CC(C)(C)N([O])C(C)(C)C1)NC(=O)OC(C)(C)C [JP4-039, TEMPO-4-yl-(S,E)-5-(tert-butoxycarbonylamino)-7-methyloct-3-enamide]
[6]
  hematopoietic cell radiation mitigation: effective hematopoietic cell radiation mitigator
[7]
  mitigation of irradiation damage: effective mitigator
[7]; before or after irradiation
  change in the Do: no significant change
[8]; 9.5 Gy total body irradiation, 10 mg per kilogram intraperitoneal 24 hours prior
  survival of mice: increases survival
[8]; 9.75 Gy total body irradiation, 10 mg per kilogram intraperitoneal
  survival of mice: significant increase in survival; also recorded: increases survival
[9]; Ercc1−/− or wild-type MEF
  cellular proliferation relative to untreated control cells: enhanced
[9]; up to 10 μM
  toxicity: no signs of toxicity were observed
[10]
  toxicity: no signs of toxicity were observed
[11]
  level of p16: much lower
[12]
  γ-H2AX (oxidation-induced DNA double-strand breaks): also effective

## CC(C)C[C@@H](/C=C/[C@H](Cc1ccccc1)C(=O)NC1=NCCC(C)S1)NC(=O)OC(C)(C)C (stereo partly drawn) [XJB-5-234, Boc-Leu-[ψ(E)-CH═CH]-^DPhe-AMT]
Mitochondrial membrane
  fmole/10 μM mitochondrial protein: 1.45 fmole/10 μM mitochondrial protein

## CC1CCN=C(N)S1 (stereo not drawn) [AMT, 2-amino-6-methyl-thiazine]
[3]
  permeation of the mitochondrial membrane (MS, Na+ adducts): do not enter the mitochondria membrane in substantial quantities
[4]
  peroxynitrite formation: comparable amount of peroxynitrite

## CC(C)C[C@H](NC(=O)OC(C)(C)C)C(=O)N[C@H](Cc1ccccc1)C(=O)N1CCC[C@H]1C(=O)N[C@H](C(=O)N[C@@H](CCCNC(=O)OCc1ccccc1)C(=O)NC1CC(C)(C)N([O])C(C)(C)C1)C(C)C [5b] (Boc-L[dF]PV[Orn](Cbz)-{NH(TEMPO-4-yl)})
MECs [2]
  intracellular superoxide generation: completely inhibited
MECs [5]
  DNA fragmentation: prevented DNA fragmentation
  caspase-3 activation: prevented caspase-3 activation
  number of annexin V-positive cells (PS externalization): reduced the number of annexin V•positive cells
MECs [5]; concentrations in excess of 10 μM
  protection or cytotoxicity at higher concentration: either less protective or exhibited cytotoxicity

— patent publication US9890192B2, “Targeted nitroxide agents” (University of Pittsburgh—of the Commonwealth System of …, priority 2008, dated 2018)
